Laboratory results: ChEMBL document CHEMBL3232715, “Recent progress in the identification of BRAF inhibitors as anti-cancer agents” (Eur J Med Chem, 2014)

Experiments:
[1] = biological target: T1, Serine/threonine-protein kinase B-raf (Homo sapiens, UniProt P15056, V600E); experiment: Inhibition of BRAF V600E mutant-mediated MEK phosphorylation in human HT-29 cells by Western blotting analysis; format: cell-based
[2] = biological target: T2, Serine/threonine-protein kinase B-raf (Homo sapiens, UniProt P15056); experiment: Inhibition of BRAF (unknown origin)
T2 sequence (P15056 whole entry): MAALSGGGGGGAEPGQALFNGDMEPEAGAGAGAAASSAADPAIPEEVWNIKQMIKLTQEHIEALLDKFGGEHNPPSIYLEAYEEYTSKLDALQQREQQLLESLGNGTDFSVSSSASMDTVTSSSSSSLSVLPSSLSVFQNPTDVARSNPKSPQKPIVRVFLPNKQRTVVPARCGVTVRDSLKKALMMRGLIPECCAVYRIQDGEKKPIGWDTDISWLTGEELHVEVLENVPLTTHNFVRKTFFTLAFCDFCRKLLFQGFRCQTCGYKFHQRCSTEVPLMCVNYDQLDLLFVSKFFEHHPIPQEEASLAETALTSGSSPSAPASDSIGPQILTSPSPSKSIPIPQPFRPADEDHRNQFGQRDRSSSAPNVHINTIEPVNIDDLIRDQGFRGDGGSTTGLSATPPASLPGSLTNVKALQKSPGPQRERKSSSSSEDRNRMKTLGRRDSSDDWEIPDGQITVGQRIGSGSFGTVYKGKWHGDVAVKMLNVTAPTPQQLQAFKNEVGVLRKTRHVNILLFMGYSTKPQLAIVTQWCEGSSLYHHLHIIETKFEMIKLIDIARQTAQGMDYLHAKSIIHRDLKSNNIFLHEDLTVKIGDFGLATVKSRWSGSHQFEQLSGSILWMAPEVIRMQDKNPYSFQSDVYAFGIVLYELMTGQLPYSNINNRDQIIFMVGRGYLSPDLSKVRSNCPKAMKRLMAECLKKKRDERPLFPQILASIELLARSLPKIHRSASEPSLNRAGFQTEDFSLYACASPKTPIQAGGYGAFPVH

[3] = biological target: T2, Serine/threonine-protein kinase B-raf; experiment: Inhibition of N-terminal 6X-His tagged human wild-type BRAF by ELISA
[4] = biological target: T1, Serine/threonine-protein kinase B-raf; experiment: Inhibition of N-terminal 6X-His tagged human BRAF V600E mutant (433 to 726) by ELISA
A-375 = experiment: Antiproliferative activity against human A375 cells; format: functional, cell-based
[5] = Antiproliferative activity against human WM266.4 cells; format: functional, cell-based; conditions: WM 266-4
[6] = biological target: T1, Serine/threonine-protein kinase B-raf; experiment: Inhibition of BRAF V600E mutant (unknown origin)
[7] = biological target: T2, Serine/threonine-protein kinase B-raf; experiment: Inhibition of BRAF (unknown origin)-mediated ERK phosphorylation

T1 sequence (P15056 2-766 V600E limits assumed): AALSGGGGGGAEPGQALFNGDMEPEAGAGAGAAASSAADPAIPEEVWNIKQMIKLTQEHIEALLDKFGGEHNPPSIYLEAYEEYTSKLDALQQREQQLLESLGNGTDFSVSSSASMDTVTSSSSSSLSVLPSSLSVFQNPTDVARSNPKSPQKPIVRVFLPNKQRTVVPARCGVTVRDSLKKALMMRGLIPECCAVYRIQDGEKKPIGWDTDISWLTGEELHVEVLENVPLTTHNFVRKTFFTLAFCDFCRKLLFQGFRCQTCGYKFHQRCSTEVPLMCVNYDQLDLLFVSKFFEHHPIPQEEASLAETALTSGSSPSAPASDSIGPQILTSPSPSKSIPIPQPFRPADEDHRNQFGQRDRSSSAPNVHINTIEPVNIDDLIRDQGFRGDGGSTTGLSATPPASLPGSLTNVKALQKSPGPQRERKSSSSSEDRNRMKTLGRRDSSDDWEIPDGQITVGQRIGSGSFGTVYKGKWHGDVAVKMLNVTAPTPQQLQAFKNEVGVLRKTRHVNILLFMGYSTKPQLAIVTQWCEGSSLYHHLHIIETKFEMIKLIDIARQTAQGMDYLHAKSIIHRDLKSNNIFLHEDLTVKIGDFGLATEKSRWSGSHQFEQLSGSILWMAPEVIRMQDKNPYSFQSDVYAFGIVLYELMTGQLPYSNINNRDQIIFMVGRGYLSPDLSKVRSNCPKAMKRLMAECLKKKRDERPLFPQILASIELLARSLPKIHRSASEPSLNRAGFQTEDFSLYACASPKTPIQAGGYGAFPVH

**Q.** With `O=C(Nc1cccc(Oc2ccc3nc(NC(=O)C4CCOCC4)cn3n2)c1)c1cccc(C(F)(F)F)c1` as the compound, how does the IC50 [1] read?
**A.** 3800 nM

**Q.** And the IC50 [2]?
**A.** 43 nM

**Q.** What does the source list for `O=C1NC(=S)NC(=O)C1=Cc1ccc(-c2ccc3c(c2)OCO3)o1`?
**A.** IC50 [3]: 1150 nM; IC50 [4]: 300 nM

**Q.** Which IC50 (A-375) does the source give for `O=C(Nc1ccccc1)N(Cc1ccc(Br)cc1O)c1cc(-c2ccccc2)[nH]n1` here?
**A.** 1320 nM

**Q.** And the IC50 [5]?
**A.** 1500 nM

**Q.** And the IC50 [6]?
**A.** 190 nM

**Q.** For `O/N=C1\CCc2cc(-c3cn(C4CCNCC4)nc3-c3ccncc3)ccc21`, which IC50 [7] is on record?
**A.** 9 nM
